Experimental data from patent publication US11332470B2, “CXCR4 inhibitors and uses thereof” (X4 Pharmaceuticals, Inc., priority 2016, dated 2022).

Experiments:
[1] = biological target: T1, CXCR4 (Jurkat cells expressing CXCR4) (Homo sapiens, UniProt P61073); experiment: Chemokine (CXCL12-AF647) binding inhibition assay; settings: CXCL12-AF647 25 ng/mL, read-out: IC50 CXCL-12 binding Jurkat
T1 construct: Jurkat cells expressing CXCR4; endogenous in cells; host or cells: Jurkat
Description: Chemokine (CXCL12-AF647) Binding Inhibition Assay
Jurkat cells expressing CXCR4 were washed once with assay buffer (Hanks' balanced salt solution with 20 mM HEPES buffer and 0.2% bovine serum albumin, pH 7.4) and then incubated for 15 min at room temperature with the test compounds diluted in assay buffer at dose-dependent concentrations. Subsequently, CXCL12-AF647 (25 ng/mL) was added to the compound-incubated cells. The cells were incubated for 30 min at room temperature. Thereafter, the cells were washed twice in assay buffer, fixed in 1% paraformaldehyde in PBS, and analyzed on the FL4 channel of a FACSCalibur flow cytometer equipped with a 635-nm red diode laser (Becton Dickinson, San Jose, Calif., USA).
The percentages of inhibition of CXCL12-AF647 binding were calculated according to the formula: [1−((MFI−MFINC)/(MFIPC−MFINC))]×100 where MFI is the mean fluorescence intensity of the cells incubated with CXCL12-AF647 in the presence of the inhibitor, MFINC is the mean fluorescence intensity measured in the negative control (i.e., autofluorescence of unlabeled cells), and MFIPC is the mean fluorescence intensity of the positive control (i.e., cells exposed to CXCL12-AF647 alone).

[2] = biological target: T2, CXCR4 (U87.CXCR4 cells) (Homo sapiens, UniProt P61073); experiment: Intracellular CXCL-12-induced calcium mobilization assay (FLIPR); type: cell-based; settings: CXCL-12 25-50 ng/mL, read-out: IC50 CXCL-12 Ca2+ flux U87.CXCR4+
T2 construct: expressed in transfected cells; host or cells: U87 (U87.CXCR4)
T2 sequence (P61073 whole entry): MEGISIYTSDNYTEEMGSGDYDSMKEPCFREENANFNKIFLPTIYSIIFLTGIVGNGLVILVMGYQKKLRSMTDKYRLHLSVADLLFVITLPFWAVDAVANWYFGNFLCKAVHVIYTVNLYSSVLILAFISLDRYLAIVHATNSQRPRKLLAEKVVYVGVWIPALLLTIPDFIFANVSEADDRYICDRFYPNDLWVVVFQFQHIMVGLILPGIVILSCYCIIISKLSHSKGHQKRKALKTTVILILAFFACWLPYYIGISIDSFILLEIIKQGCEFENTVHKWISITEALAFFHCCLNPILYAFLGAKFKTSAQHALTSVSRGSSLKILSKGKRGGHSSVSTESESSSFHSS
Description: Intracellular CXCL-12-Induced Calcium Mobilization Assay
Intracellular calcium mobilization induced by chemokines or chemokine-derived peptides were evaluated using a calcium responsive fluorescent probe and a FLIPR system. The CXCR-4 transfected U87 cell line (U87.CXCR4) cells were seeded in gelatine-coated black-wall 96-well plates at 20,000 cells per well and incubated for 12 hours. Cells were then loaded with the fluorescent calcium probe Fluo-2 acetoxymethyl at 4 μM final concentration in assay buffer (Hanks' balanced salt solution with 20 mM HEPES buffer and 0.2% bovine serum albumin, pH 7.4) for 45 min at 37° C. The intracellular calcium mobilization induced by the CXCL-12 (25-50 ng/mL) was then measured at 37° C. by monitoring the fluorescence as a function of time in all the wells simultaneously using a fluorometric imaging plate reader (FLIPR Tetra, Molecular Devices).

[3] = in vitro; settings: human, Caco-2, pH 7.4
Description: The goal of this assay was to evaluate the intestinal absorption potential of drug candidates using Caco-2 cell lines.
1. Prewarm Prewarm HBSS Buffer in 37° C. water bath
2. Sonicate Take compounds from −20° C., sonicate for a few minutes (no less than 1 minute)
• Donor solution buffer: For A-to-B Direction: HBSS buffer with 0.3% DMSO and 5 μM LY: add 150 μL DMSO and 50 μL LY (5 mM) into 50 ml HBSS buffer (pH 7.4). HBSS buffer with 0.1% DMSO and 5 μM LY: add 50 μL DMSO and 50 μL LY (5 mM) into 50 mL HBSS buffer (pH 7.4). For B-to-A Direction: HBSS buffer with 0.3% DMSO: add 150 μL DMSO into 50 ml HBSS buffer (pH 7.4). HBSS buffer with 0.1% DMSO: add 50 μL DMSO into 50 ml HBSS buffer (pH 7.4). Receiver Solution Buffer: For A-to-B Direction: Prepare HBSS buffer with 0.4% DMSO: add 200 μL DMSO into 50 ml HBSS buffer (pH 7.4). For B-to-A Direction: Prepare HBSS buffer with 0.4% DMSO and 5 μM LY: add 200 μL DMSO and 50 μL LY (5 mM) into 50 ml HBSS buffer (pH 7.4).
4. Measure TEER Take cell culture plate out of incubator, wash the cell monolayers with HBSS buffer, and then measure TEER values at Rm temperature. 5. Centrifuge Centrifuge the compound solution (from step 3) at 4000 rpm for 5 min before loading to donor chambers. 6. Dosing Add solution based on the volumes listed in the following table (make sure to take extra 100 μL of donor sample for TO as Backup).
7. Apical LYT0 samples To determine LY concentration in the apical chamber, take 100 μL sample from apical chambers into an opaque plate for LYT0. 8. Prewarm Prewarm apical and basolateral plates at 37° C. for about 5 min, then begin transport by placing the apical plate onto basolateral plate. 9. Incubation Keep the plates in incubator at 37° C. for 90 min. 10.
Prepare Working Solution in MeOH/H2O (1:1)
• Prepare 1×solution: 3 μL (20×)+57 μL of 0.4% DMSO HBSS+60 μL ACN with IS (Osalmid or Imipramine)−120 μL (1×) 11. Transport termination Separate the apical plate from the basolateral plate after 90-min incubation. 12. Measure LY Take 100 μL samples from basolateral plate to an opaque plate as LYT90. 13. Measure LY concentrations for LYT0 and LYT90 by Fluorometer (at excitation of 485 nm/emission of 535 nm). 14.
Study details: Test concentration 10 μM
Test systems: Caco-2/HBSS solution
Incubation conditions: 0, 90 min at 37° C.
Sample size: Duplicates (n=2)
Bioanalytical method: LC-MS/MS
For Millicell-24 Cell Culture Plates: surface area of the membrane=0.7 cm^2, VA=0.8 mL (A-to-B) or 0.4 mL (B-to-A)
The compound numbers correspond to the compound numbers in Table 1.

T1 sequence (P61073 whole entry): as above

| SMILES | IC50 [1] [nM] | IC50 [2] [nM] | Papp A→B at 90 min, 10 μM [3] [×10⁻⁶ cm/s] | Papp B→A at 90 min, 10 μM [3] [×10⁻⁶ cm/s] | efflux ratio at 90 min, 10 μM [3] |
| --- | --- | --- | --- | --- | --- |
| CN1CCN(c2c(CN3CCCC3c3ccc(F)cn3)nc3ccccn23)CC1 (centres unmarked) [Compound I-76] | 0.01 to 100 | 0.01 to 100 | 10 to 30 | 0.1 to 10 | 0.1 to 10 |
| Cc1c(CN2CCCC2c2ncccc2Cl)nc2cccc(N3CCN(C)CC3)n12 (centres unmarked) [Compound I-47] | 0.01 to 100 | 100 to 1000 | 0.1 to 10 | 10 to 30 | 0.1 to 10 |
| CN1CCN(c2cccc3nc(CN4CCCC4c4nccs4)[nH]c23)CC1 (centres unmarked) [Compound I-49] | ≥ 1000 | ≥ 1000 | 10 to 30 | 10 to 30 | 0.1 to 10 |
| Cc1cccnc1C1CCCN1Cc1ccccc1-n1cccn1 (centres unmarked) [Compound I-4, 2-(1-(2-(1H-pyrazol-1-yl)benzyl)pyrrolidin-2-yl)-3-methylpyridine] | ≥ 1000 | 100 to 1000 | > 30 | 10 to 30 | 0.1 to 10 |
| Cc1cccnc1C1CCCN1Cc1nccn1Cc1ccncc1 (centres unmarked) [Compound I-87] | 100 to 1000 | ≥ 1000 | 10 to 30 | 10 to 30 | 0.1 to 10 |
| CN1CCN(c2c(CN3CCCC3c3ncc[nH]3)nc3ccccn23)CC1 (centres unmarked) [Compound I-68] | 100 to 1000 | ≥ 1000 | 0.1 to 10 | 10 to 30 | 0.1 to 10 |
| Cc1cccnc1C1CCCN1Cc1cn2c(N3CCN(C)CC3)cccc2n1 (centres unmarked) [Compound I-6, 5-(4-methylpiperazin-1-yl)-2-((2-(3-methylpyridin-2-yl)pyrrolidin-1-yl)methyl)imidazo[1,2-a]-pyridine] | 0.01 to 100 | 0.01 to 100 | 0.1 to 10 | 10 to 30 | 10 to 30 |
| Cc1cccnc1C1CCCN1Cc1cn2c(CCC#N)cccc2n1 (centres unmarked) [Compound I-83] | 100 to 1000 | ≥ 1000 | 0.1 to 10 | > 30 | 0.1 to 10 |
| c1ccc(C2CCCN2Cc2nc3ccccn3c2-c2ccncc2)nc1 (centres unmarked) [Compound I-80] | 100 to 1000 | 100 to 1000 | 10 to 30 | > 30 | 0.1 to 10 |
| CN1CCN(c2c(CN3CCCC3c3nccn3C)nc3ccccn23)CC1 (centres unmarked) [Compound I-69] | 0.01 to 100 | 0.01 to 100 | 0.1 to 10 | 10 to 30 | 10 to 30 |
| Cc1cccnc1C1CCCN1Cc1nccn1Cc1ccccn1 (centres unmarked) [Compound I-89] | 100 to 1000 | ≥ 1000 | 10 to 30 | > 30 | 0.1 to 10 |

Next, values leading:

| IC50 [1] [nM] | IC50 [2] [nM] | Papp A→B at 90 min, 10 μM [3] [×10⁻⁶ cm/s] | Papp B→A at 90 min, 10 μM [3] [×10⁻⁶ cm/s] | efflux ratio at 90 min, 10 μM [3] | SMILES |
| --- | --- | --- | --- | --- | --- |
| 0.01 to 100 | 100 to 1000 | 10 to 30 | > 30 | 0.1 to 10 | CN1CCN(c2cccc3nc(CN4CCCC4c4ccccn4)[nH]c23)CC1 (centres unmarked) [Compound I-44] |
| 100 to 1000 | ≥ 1000 | 10 to 30 | 10 to 30 | 0.1 to 10 | Cc1cccnc1C1CCCN1Cc1nc2cccc(N3CCN(C)CC3)c2s1 (centres unmarked) [Compound I-37] |
| 0.01 to 100 | 0.01 to 100 | 0.1 to 10 | > 30 | > 30 | Cc1cccnc1C1CCCN1Cc1ncccc1CC1CCN(C)CC1 (centres unmarked) [Compound I-117] |
| 0.01 to 100 | 0.01 to 100 | 0.1 to 10 | > 30 | 0.1 to 10 | Cc1cccnc1CN1CCCC1c1cn2c(N3CCN(C)CC3)cccc2n1 (centres unmarked) [Compound I-103] |
| 0.01 to 100 | 100 to 1000 | 0.1 to 10 | > 30 | 0.1 to 10 | CN1CCN(c2cccc3nc(C4CCCN4Cc4ccccn4)[nH]c23)CC1 (centres unmarked) [Compound I-104] |
| 0.01 to 100 | 100 to 1000 | > 30 | > 30 | 0.1 to 10 | c1ccc(C2CCCN2Cc2nc3ccccn3c2N2CCN(c3ccccn3)CC2)nc1 (centres unmarked) [Compound I-97] |
| ≥ 1000 | ≥ 1000 | 0.1 to 10 | 10 to 30 | 10 to 30 | O=C1CN(c2c(CN3CCCC3c3ccccn3)nc3ccccn23)CCN1 (centres unmarked) [Compound I-86] |
| 0.01 to 100 | 0.01 to 100 | 0.1 to 10 | > 30 | 0.1 to 10 | Cc1cccnc1C1CCCN1Cc1nc2ccccc2n1CC1CCN(C)CC1 (centres unmarked) [Compound I-122] |
| 0.01 to 100 | 100 to 1000 | 10 to 30 | 10 to 30 | 0.1 to 10 | CN1CCC(n2c(CN3CCCC3c3ccccn3)nc3ccccc32)CC1 (centres unmarked) [Compound I-54] |
| 0.01 to 100 | 100 to 1000 | 0.1 to 10 | 10 to 30 | 0.1 to 10 | CN1CCN(c2c(CN3CCCC3c3ccccn3)nc3cccc(F)n23)CC1 (centres unmarked) [Compound I-64] |
| 0.01 to 100 | 100 to 1000 | 10 to 30 | 10 to 30 | 0.1 to 10 | c1ccc(C2CCCN2Cc2nc3ccccn3c2N2CCN(C3CC3)CC2)nc1 (centres unmarked) [Compound I-57] |
| 0.01 to 100 | 100 to 1000 | > 30 | > 30 | 0.1 to 10 | FC(F)(F)CN1CCN(c2c(CN3CCCC3c3ccccn3)nc3ccccn23)CC1 (centres unmarked) [Compound I-98] |
| ≥ 1000 | ≥ 1000 | 0.1 to 10 | > 30 | 0.1 to 10 | N#CCCc1cccc2nc(CN3CCCC3c3ccccn3)cn12 (centres unmarked) [Compound I-84] |
| 100 to 1000 | ≥ 1000 | > 30 | > 30 | 0.1 to 10 | c1ccc(C2CCCN2Cc2ccccc2-n2cccn2)nc1 (centres unmarked) [Compound I-65] |
